Laboratory results from patent US7595401B2, “Therapeutic compounds and their use in cancer” (Myriad Pharmaceuticals, Inc., priority 2006, dated 2009).

Test system: purified human Hsp90
Assay: Binding Assay: fluorescence polarization with BODIPY-labeled geldanamycin
Details: BODIPY-GM 10 nM, Hsp90 30 nM
Summary of the method: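 Compounds in 2% DMSO final compete with 10 nM BODIPY-GM for 30 nM purified human Hsp90, incubated overnight at room temperature in pH 7.3 HEPES buffer containing Na2MoO4 and DTT. Polarization (mP, ex/em 485/530) normalized to DMSO gives percent inhibition; autofluorescence-confounded data excluded.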

Row | % Inhibition at 5 μM Compound Concentration [%] | IC50 [nM] | SMILES
1 | 10 | – | COc1ccc(OC)c(Sc2nc3c(N)ncn(CCc4cccc(C(F)(F)F)c4)c-3n2)c1 [Example 80, 8-(2,5-dimethoxy-phenylsulfanyl)-3-[2-(3-trifluoromethyl-phenyl)-ethyl]-3H-purin-6-ylamine]
2 | 23 | – | COc1ccc(OC)c(Sc2nc3c(N)ncnc3n2CCc2ccc(C(=O)O)cc2)c1 [Example 81, 4-{2-[6-Amino-8-(2,5-dimethoxy-phenylsulfanyl)-purin-9-yl]-ethyl}-benzoic acid]
3 | 5 | – | COc1ccc(OC)c(Sc2nc3c(N)ncn(CCc4ccc(C(=O)O)cc4)c-3n2)c1 [Example 82, 4-{2-[6-Amino-8-(2,5-dimethoxy-phenylsulfanyl)-purin-3-yl]-ethyl}-benzoic acid]
4 | 0 | – | COc1ccc(OC)c(Sc2nc3c(N)ncn(Cc4ccc(F)cc4)c-3n2)c1 [Example 83, 8-(2,5-Dimethoxy-phenylsulfanyl)-3-(4-fluoro-benzyl)-3H-purin-6-ylamine]
5 | 0 | > 5000 | COc1ccc(OC)c(Sc2nc3c(N)ncnc3n2Cc2ccc([N+](=O)[O-])cc2)c1 [Example 84, 8-(2,5-Dimethoxy-phenylsulfanyl)-9-(4-nitro-benzyl)-9H-purin-6-ylamine]
6 | – | 360 | COc1ccc(OC)c(Sc2nc3c(N)ncnc3n2CCc2ccccc2OC)c1 [Example 85, 8-(2,5-Dimethoxy-phenylsulfanyl)-9-[2-(2-methoxy-phenyl)-ethyl]-9H-purin-6-ylamine]
7 | – | > 5000 | COc1ccc(OC)c(Sc2nc3c(N)ncn(CCc4ccccc4OC)c-3n2)c1 [Example 86, 8-(2,5-dimethoxy-phenylsulfanyl)-3-[2-(2-methoxy-phenyl)-ethyl]-3H-purin-6-ylamine]
8 | 12 | – | CCC(Cn1c(Sc2cc(OC)ccc2OC)nc2c(N)ncnc21)c1ccccc1 (centres unmarked) [Example 87, 8-(2,5-Dimethoxy-phenylsulfanyl)-9-(2-phenyl-butyl)-9H-purin-6-ylamine]
9 | – | 1300 | CCC(Cn1cnc(N)c2nc(Sc3cc(OC)ccc3OC)nc1-2)c1ccccc1 (centres unmarked) [Example 88]
10 | – | > 10000 | COc1ccc(OC)c(Sc2nc3c(N)ncnc3n2CCc2cc(OC)c(OC)c(OC)c2)c1 [Example 89, 8-(2,5-Dimethoxy-phenylsulfanyl)-9-[2-(3,4,5-trimethoxy-phenyl)-ethyl]-9H-purin-6-ylamine]
11 | 6 | – | COc1ccc(OC)c(Sc2nc3c(N)ncn(CCc4cc(OC)c(OC)c(OC)c4)c-3n2)c1 [Example 90, 8-(2,5-Dimethoxy-phenylsulfanyl)-3-[2-(3,4,5-trimethoxy-phenyl)-ethyl]-3H-purin-6-ylamine]
12 | – | 200 | COc1cc(CCn2c(Sc3cc4c(cc3Br)OCO4)nc3c(N)ncnc32)cc(OC)c1OC [Example 91, 8-(6-Bromo-benzo[1,3]dioxol-5-ylsulfanyl)-9-[2-(3,4,5-trimethoxy-phenyl)-ethyl]-9H-purin-6-ylamine]
13 | 0 | – | COc1cc(CCn2cnc(N)c3nc(Sc4cc5c(cc4Br)OCO5)nc2-3)cc(OC)c1OC [Example 92, 8-(6-bromo-benzo[1,3]dioxol-5-ylsulfanyl)-3-[2-(3,4,5-trimethoxy-phenyl)-ethyl]-3H-purin-6-ylamine]
14 | – | 190 | Cc1cc(C)c(CCn2c(Sc3cc4c(cc3Br)OCO4)nc3c(N)ncnc32)c(C)c1 [Example 93, 8-(6-Bromo-benzo[1,3]dioxol-5-ylsulfanyl)-9-[2-(2,4,6-trimethyl-phenyl)-ethyl]-9H-purin-6-ylamine]
15 | 0 | – | Cc1cc(C)c(CCn2cnc(N)c3nc(Sc4cc5c(cc4Br)OCO5)nc2-3)c(C)c1 [Example 94, 8-(6-bromo-benzo[1,3]dioxol-5-ylsulfanyl)-3-[2-(2,4,6-trimethyl-phenyl)-ethyl]-3H-purin-6-ylamine]
16 | – | > 3000 | Nc1ncnc2c1nc(Sc1cc3c(cc1Br)OCO3)n2CC1(c2ccc(Cl)cc2)CCC1 [Example 95, 8-(6-Bromo-benzo[1,3]dioxol-5-ylsulfanyl)-9-[1-(4-chloro-phenyl)-cyclobutylmethyl]-9H-purin-6-ylamine]
17 | 2 | – | Nc1ncn(CC2(c3ccc(Cl)cc3)CCC2)c2nc(Sc3cc4c(cc3Br)OCO4)nc1-2 [Example 96, 8-(6-bromo-benzo[1,3]dioxol-5-ylsulfanyl)-3-[1-(4-chloro-phenyl)-cyclobutylmethyl]-3H-purin-6-ylamine]
18 | – | 450 | COc1ccc(OC)c(Sc2nc3c(N)ncnc3n2CCc2ccc(Cl)cc2F)c1 [Example 97, 9-[2-(4-Chloro-2-fluoro-phenyl)-ethyl]-8-(2,5-dimethoxy-phenylsulfanyl)-9H-purin-6-ylamine]
19 | 0 | – | COc1ccc(OC)c(Sc2nc3c(N)ncn(CCc4ccc(Cl)cc4F)c-3n2)c1 [Example 98, 3-[2-(4-chloro-2-fluoro-phenyl)-ethyl]-8-(2,5-dimethoxy-phenylsulfanyl)-3H-purin-6-ylamine]

Row | % Inhibition at 5 μM Compound Concentration [%] | IC50 [nM] | SMILES
20 | – | 300 | CCC(C)C(Cn1c(Sc2cc3c(cc2Br)OCO3)nc2c(N)ncnc21)c1ccccc1 (centres unmarked) [Example 99, 8-(6-Bromo-benzo[1,3]dioxol-5-ylsulfanyl)-9-(3-methyl-2-phenyl-pentyl)-9H-purin-6-ylamine]
21 | 39 | – | CCC(C)C(Cn1cnc(N)c2nc(Sc3cc4c(cc3Br)OCO4)nc1-2)c1ccccc1 (centres unmarked) [Example 100, 8-(6-bromo-benzo[1,3]dioxol-5-ylsulfanyl)-3-(3-methyl-2-phenyl-pentyl)-3H-purin-6-ylamine]
22 | – | > 3000 | Nc1ncnc2c1nc(Sc1cc3c(cc1Br)OCO3)n2CC(c1ccccc1)C1CCCC1 (centres unmarked) [Example 101, 8-(6-Bromo-benzo[1,3]dioxol-5-ylsulfanyl)-9-(2-cyclopentyl-2-phenyl-ethyl)-9H-purin-6-ylamine]
23 | 39 | – | Nc1ncn(CC(c2ccccc2)C2CCCC2)c2nc(Sc3cc4c(cc3Br)OCO4)nc1-2 (centres unmarked) [Example 102, 8-(6-bromo-benzo[1,3]dioxol-5-ylsulfanyl)-3-(2-cyclopentyl-2-phenyl-ethyl)-3H-purin-6-ylamine]
24 | – | > 1000 | COc1ccc(OC)c(Sc2nc3c(N)ncnc3n2CC(c2ccccc2)C2CCCC2)c1 (centres unmarked) [Example 103, 9-(2-Cyclopentyl-2-phenyl-ethyl)-8-(2,5-dimethoxy-phenylsulfanyl)-9H-purin-6-ylamine]
25 | 38 | – | COc1ccc(OC)c(Sc2nc3c(N)ncn(CC(c4ccccc4)C4CCCC4)c-3n2)c1 (centres unmarked) [Example 104, 3-(2-cyclopentyl-2-phenyl-ethyl)-8-(2,5-dimethoxy-phenylsulfanyl)-3H-purin-6-ylamine]
26 | – | > 1000 | CCC(C)C(Cn1c(Sc2cc(OC)ccc2OC)nc2c(N)ncnc21)c1ccccc1 (centres unmarked) [Example 105, 8-(2,5-Dimethoxy-phenylsulfanyl)-9-(3-methyl-2-phenyl-pentyl)-9H-purin-6-ylamine]
27 | 41 | – | CCC(C)C(Cn1cnc(N)c2nc(Sc3cc(OC)ccc3OC)nc1-2)c1ccccc1 (centres unmarked) [Example 106, 8-(2,5-dimethoxy-phenylsulfanyl)-3-(3-methyl-2-phenyl-pentyl)-3H-purin-6-ylamine]
28 | 0 | – | COc1ccc(OC)c(Sc2nc3c(N)ncnc3n2CC(O)c2ccc(Cl)cc2Cl)c1 (centres unmarked) [Example 107, 2-[6-Amino-8-(2,5-dimethoxy-phenylsulfanyl)-purin-9-yl]-1-(2,4-dichloro-phenyl)ethanol]
29 | 30 | – | COc1ccc(OC)c(Sc2nc3c(N)ncn(CC(O)c4ccc(Cl)cc4Cl)c-3n2)c1 (centres unmarked) [Example 108, 2-[6-amino-8-(2,5-dimethoxy-phenylsulfanyl)-purin-3-yl]-1-(2,4-dichloro-phenyl)ethanol]
30 | – | 300 | Nc1ncnc2c1nc(Sc1cc3c(cc1Br)OCO3)n2CCc1cccc(F)c1 [Example 109, 8-(6-Bromo-benzo[1,3]dioxol-5-ylsulfanyl)-9-[2-(3-fluoro-phenyl)-ethyl]-9H-purin-6-ylamine]
31 | 16 | – | Nc1ncn(CCc2cccc(F)c2)c2nc(Sc3cc4c(cc3Br)OCO4)nc1-2 [Example 110, 8-(6-bromo-benzo[1,3]dioxol-5-ylsulfanyl)-3-[2-(3-fluoro-phenyl)-ethyl]-3H-purin-6-ylamine]
32 | – | 10000 | CCOc1cc(CCn2c(Sc3cc(OC)ccc3OC)nc3c(N)ncnc32)ccc1OC [Example 111, 8-(2,5-Dimethoxy-phenylsulfanyl)-9-[2-(3-ethoxy-4-methoxy-phenyl)-ethyl]-9H-purin-6-ylamine]
33 | 0 | – | CCOc1cc(CCn2cnc(N)c3nc(Sc4cc(OC)ccc4OC)nc2-3)ccc1OC [Example 112, 8-(2,5-dimethoxy-phenylsulfanyl)-3-[2-(3-ethoxy-4-methoxy-phenyl)-ethyl]-3H-purin-6-ylamine]
34 | – | 550 | COc1ccc(OC)c(Sc2nc3c(N)ncnc3n2CC(c2ccccc2)C(C)C)c1 (centres unmarked) [Example 113, 8-(2,5-Dimethoxy-phenylsulfanyl)-9-(3-methyl-2-phenyl-butyl)-9H-purin-6-ylamine]
35 | 14 | – | COc1ccc(OC)c(Sc2nc3c(N)ncn(CC(c4ccccc4)C(C)C)c-3n2)c1 (centres unmarked) [Example 114, 8-(2,5-dimethoxy-phenylsulfanyl)-3-(3-methyl-2-phenyl-butyl)-3H-purin-6-ylamine]
36 | – | 110 | COc1ccc(OC)c(Sc2nc3c(N)ncnc3n2CCc2cc(C)ccc2C)c1 [Example 115, 8-(2,5-Dimethoxy-phenylsulfanyl)-9-[2-(2,5-dimethyl-phenyl)-ethyl]-9H-purin-6-ylamine]
37 | 0 | – | COc1ccc(OC)c(Sc2nc3c(N)ncn(CCc4cc(C)ccc4C)c-3n2)c1 [Example 116, 8-(2,5-dimethoxy-phenylsulfanyl)-3-[2-(2,5-dimethyl-phenyl)-ethyl]-3H-purin-6-ylamine]
